Measured values taken from patent US12060335B1, “2-(benzo[d]oxazol-2-yl)-N′-(3,5-dichlorobenzoyloxy)acetimidamide as an antimicrobial compound” (KING FAISAL UNIVERSITY, priority 2023, dated 2024).

Columns and labels:
Bacillus Cereus = test: Agar plate disc-diffusion, antibacterial activity by measuring inhibition zone; type: cell-based; details: Gram positive, nutrient agar, 37° C., 48 hours
Description: (§1) The agar plate disc-diffusion method was applied. […] The discs were then placed onto the surface of agar plates (nutrient agar for bacteria and Sabouraud's dextrose agar for fungi) seeded with the test organism. Each plate contained 15 mL of the agar medium, previously seeded with 0.2 mL of the broth culture of each organism pregrown for 18 hours. The plates were incubated at 37° C. for 48 hours, and 72 hours for fungi. The inhibition zones was measured in mm. Discs impregnated with DMSO were used as a control, and its inhibition zone was subtracted from the tested compound actual inhibition zone.

Staphylococcus aureus = test: as above; type: cell-based; details: Gram positive, nutrient agar, 37° C., 48 hours
Description: as §1

Escherichia coli = test: as above; type: cell-based; details: Gram negative, nutrient agar, 37° C., 48 hours
Description: (§2) The agar plate disc-diffusion method was applied. Sterilized filter papers (6 mm in diameter) were wetted with 10 μL of a solution 2-(benzo[d]oxazol-2-yl)-N′-(3,5-dichlorobenzoyloxy)acetimidamide (3) to be tested, containing 10 mg/mL in DMSO, and the discs were allowed to air dry. The discs were then placed onto the surface of agar plates (nutrient agar for bacteria and Sabouraud's dextrose agar for fungi) seeded with the test organism. Each plate contained 15 mL of the agar medium, previously seeded with 0.2 mL of the broth culture of each organism pregrown for 18 hours. The plates were incubated at 37° C. for 48 hours, and 72 hours for fungi. The inhibition zones was measured in mm. Discs impregnated with DMSO were used as a control, and its inhibition zone was subtracted from the tested compound actual inhibition zone.

Pseudomonas aeruginosa = test: as above; type: cell-based; details: Gram negative, nutrient agar, 37° C., 48 hours
Description: as §2

Aspergillus flavus = test: Agar plate disc-diffusion, antifungal activity by measuring inhibition zone; type: cell-based; details: Sabouraud's dextrose agar, 72 hours
Description: as §1

[1] = tested on: Chrysosporium keratinophilum; test: as above; type: cell-based; details: Sabouraud's dextrose agar, 72 hours
Description: as §1

different microbes = test: Antimicrobial activity screen, overall statement; type: cell-based; details: against different microbes (bacteria and fungi of Tables 1 and 2)
Description: as §2

[2] = A = concentration of comp. = 10,000 μL
[3] = B = concentration of comp. = 30,000 μL
[4] = C = concentration of comp. = 50,000 μL

SMILES | inhibition zone (Bacillus Cereus; [2]) | inhibition zone (Bacillus Cereus; [3]) | inhibition zone (Bacillus Cereus; C =) | inhibition zone (Staphylococcus aureus; [2]) | inhibition zone (Staphylococcus aureus; [3]) | inhibition zone (Staphylococcus aureus; [4]) | inhibition zone (Escherichia coli; [2]) | inhibition zone (Escherichia coli; [3]) | inhibition zone (Escherichia coli; [4]) | inhibition zone (Pseudomonas aeruginosa; [2]) | inhibition zone (Pseudomonas aeruginosa; [3]) | inhibition zone (Pseudomonas aeruginosa; C =) | inhibition zone (Aspergillus flavus; [2]) | inhibition zone (Aspergillus flavus; [3]) | inhibition zone (Aspergillus flavus; [4]) | inhibition zone [1, 2] | inhibition zone [1, 3] | inhibition zone [1, 4] | antimicrobial activities (different microbes) | melting point
O=C(O)c1cn(C2CC2)c2cc(N3CCNCC3)c(F)cc2c1=O [Cip., ciprofloxacin, reference compound] | 29 mm | 30 mm | 42 mm | 43 mm | 44 mm | 53 mm | 30 mm | 39 mm | 60 mm | 29 mm | 30 mm | 53 mm | 29 mm | 30 mm | 42 mm | 29 mm | 30 mm | 53 mm |  | 
N/C(Cc1nc2ccccc2o1)=N\OC(=O)c1cc(Cl)cc(Cl)c1 [Compound 3, 2-(benzo[d]oxazol-2-yl)-N′-(3,5-dichlorobenzoyloxy)acetimidamide] | 20 mm | 22 mm | 30 mm | 19 mm | 21 mm | 29 mm | 26 mm | 34 mm | 46 mm | 25 mm | 27 mm | 43 mm | 20 mm | 22 mm | 29 mm | 27 mm | 29 mm | 49 mm | excellent antimicrobial activities | 158 to 159 °C
